Legend:
Format in all cases: in vitro ADME
CYP2C9 = target: T1, CYP2C9 (Homo sapiens, UniProt P11712); assay: Incubation with human cDNA-expressed CYP2C9; conditions: CYP2C9, 30 min at 37 °C with NADPH; ETN101 10 μM or M1 1 μM; diclofenac positive control
T1 construct: purchased Corning Life Sciences (Woburn, MA, USA)
Description: The mobile phases comprised 0.1% (v/v) formic acid in water (mobile phase A) and 0.1% formic acid (v/v) in acetonitrile (mobile phase B). […] The column and auto-sampler were maintained at 40 °C and 4 °C, respectively. ETN101, M1, and M2 were detected via MRM using ESI in the positive mode. […] Mass Hunter software (Agilent Technologies) was used to control the LC-MS/MS instrument and for data processing.

CYP2A6 = target: T2, CYP2A6 (Homo sapiens, UniProt P11509); assay: Incubation with human cDNA-expressed CYP2A6; conditions: CYP2A6, 30 min at 37 °C with NADPH; ETN101 10 μM or M1 1 μM
T2 construct: purchased Corning Life Sciences (Woburn, MA, USA)
T2 sequence (P11509 1-494): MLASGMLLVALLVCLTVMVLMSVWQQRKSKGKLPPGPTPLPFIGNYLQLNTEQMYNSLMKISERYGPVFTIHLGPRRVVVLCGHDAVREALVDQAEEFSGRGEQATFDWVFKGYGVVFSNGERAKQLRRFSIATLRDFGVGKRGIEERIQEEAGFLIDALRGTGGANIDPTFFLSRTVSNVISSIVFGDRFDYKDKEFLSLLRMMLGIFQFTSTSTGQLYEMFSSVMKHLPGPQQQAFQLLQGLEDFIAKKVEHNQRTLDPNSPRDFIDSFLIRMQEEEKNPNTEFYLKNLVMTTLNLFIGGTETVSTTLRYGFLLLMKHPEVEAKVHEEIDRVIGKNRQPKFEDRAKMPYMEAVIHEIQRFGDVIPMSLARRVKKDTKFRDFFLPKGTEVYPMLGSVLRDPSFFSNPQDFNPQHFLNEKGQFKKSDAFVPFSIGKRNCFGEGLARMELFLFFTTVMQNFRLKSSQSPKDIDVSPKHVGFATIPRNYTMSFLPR
Description: (§1) ETN101 or M1 was incubated with nine human cDNA-expressed CYP enzymes (1A2, 2A6, 2B6, 2C8, 2C9, 2C19, 2D6, 2E1, and 3A4) to identify the CYPs involved in the metabolism of ETN101. Based on the preliminary study, the incubation conditions were determined as follows: Briefly, reaction mixtures of 50 μL containing ETN101 (final concentration: 10 μM) or M1 (final concentration: 1 μM), and CYPs (final amount: 5 pmol for CYP1A2, 2A6, 2C8, 2C9, 2C19, 2D6, and 3A4; 10 pmol for CYP2B6 and 2E1) were prepared in 0.1 M potassium phosphate buffer. The reaction was initiated by adding 50 μL of NADPH- regenerating system; the mixtures were incubated for 0 min or 30 min at 37 °C in triplicate. Reactions were terminated by the addition of 100 μL of ice-cold acetonitrile containing the IS (camptothecin, 200 ng/mL). Samples were centrifuged at 13,000 rpm for 5 min at 4 °C. An aliquot of 2 μL supernatant was injected in LC–MS/MS system.
(§2) For enzyme characterization, an Agilent 6460 triple quadrupole mass spectrometer coupled with a 1260 HPLC system (Agilent Technologies, Santa Clara, CA, USA) and a Kinetex Halo® C18 column (2.7 μm, 2.1 × 50 mm, Advanced Material Technology, Wilmington, DE, USA) were used for chromatographic separation. […] ETN101, M1, and M2 were detected via MRM using ESI in the positive mode. […]

CYP2E1 = target: T3, CYP2E1 (Homo sapiens, UniProt P05181); assay: Incubation with human cDNA-expressed CYP2E1; conditions: CYP2E1, 30 min at 37 °C with NADPH; ETN101 10 μM or M1 1 μM
T3 construct: purchased Corning Life Sciences (Woburn, MA, USA)
Description: as §1, §2

rat hepatocytes = assay: Metabolite characterization in rat hepatocytes; conditions: rat hepatocyte 1 h incubates of ETN101; ND:<1.2E+05 peak area
Description: We mixed 60 μL aliquots of 40 μM ETN101 in incubation medium and an equal volume of human, mouse, rat, dog, or monkey hepatocyte suspension in 96-well plates and incubated for 0 or 1 h in a CO2 incubator at 37 °C. The reactions were quenched by adding 120 µL of ice-cold acetonitrile to each well, and the cell suspension was sonicated for 5 min at 4 °C. Subsequently, centrifugation was carried out at 15,000× g for 10 min at 4 °C. Next, the supernatants were evaporated to dryness using a vacuum concentrator, and residues were re-dissolved in 70 μL of 30% acetonitrile. Each sample (5 μL aliquots) was analyzed using LC–HRMS system.
For metabolite characterization, a Vanquish HPLC system (Thermo Fisher Scientific, San José, CA, USA) coupled with a Q-Exactive Orbitrap mass spectrometer (Thermo Fisher Scientific Inc., Waltham, MA, USA) was used at Core Research Support Center for Natural Products and Medical Materials at Yeungnam University. […] The eluent from the column was directly injected into the mass spectrometer using a heated electrospray ionization (HESI) source in positive ionization mode. […] The spray voltage was 3.0 kV and the capillary temperature was 320 °C. Full scan MS^1 with a data-dependent MS^2 acquisition mode was applied to obtain MS^1 scan data ranging from m/z 80 to 900, at a resolution of 70,000, whereas data-dependent MS^2 spectra were acquired for the five most abundant peaks per cycle at a resolution of 35,000. The parallel reaction monitoring (PRM) mode was used to obtain the MS^2 spectra of putative metabolites detected at low peak intensities in the data-dependent MS^2 acquisition mode. Data were collected and interpreted using Thermo Scientific Xcalibur™ Software (Thermo Fisher Scientific).

T3 sequence (P05181 whole entry): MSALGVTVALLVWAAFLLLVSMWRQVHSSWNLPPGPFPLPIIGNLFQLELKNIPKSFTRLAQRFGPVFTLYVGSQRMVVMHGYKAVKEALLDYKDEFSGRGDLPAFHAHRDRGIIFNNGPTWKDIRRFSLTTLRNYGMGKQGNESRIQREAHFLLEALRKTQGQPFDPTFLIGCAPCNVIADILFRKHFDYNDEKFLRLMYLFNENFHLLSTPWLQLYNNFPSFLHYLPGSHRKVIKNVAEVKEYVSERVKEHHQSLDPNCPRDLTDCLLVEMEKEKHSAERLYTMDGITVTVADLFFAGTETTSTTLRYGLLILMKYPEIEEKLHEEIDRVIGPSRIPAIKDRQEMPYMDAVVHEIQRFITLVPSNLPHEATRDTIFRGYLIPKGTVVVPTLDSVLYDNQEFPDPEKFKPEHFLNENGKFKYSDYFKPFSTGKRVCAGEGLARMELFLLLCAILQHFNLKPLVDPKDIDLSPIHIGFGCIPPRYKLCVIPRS
T1 sequence (P11712 whole entry): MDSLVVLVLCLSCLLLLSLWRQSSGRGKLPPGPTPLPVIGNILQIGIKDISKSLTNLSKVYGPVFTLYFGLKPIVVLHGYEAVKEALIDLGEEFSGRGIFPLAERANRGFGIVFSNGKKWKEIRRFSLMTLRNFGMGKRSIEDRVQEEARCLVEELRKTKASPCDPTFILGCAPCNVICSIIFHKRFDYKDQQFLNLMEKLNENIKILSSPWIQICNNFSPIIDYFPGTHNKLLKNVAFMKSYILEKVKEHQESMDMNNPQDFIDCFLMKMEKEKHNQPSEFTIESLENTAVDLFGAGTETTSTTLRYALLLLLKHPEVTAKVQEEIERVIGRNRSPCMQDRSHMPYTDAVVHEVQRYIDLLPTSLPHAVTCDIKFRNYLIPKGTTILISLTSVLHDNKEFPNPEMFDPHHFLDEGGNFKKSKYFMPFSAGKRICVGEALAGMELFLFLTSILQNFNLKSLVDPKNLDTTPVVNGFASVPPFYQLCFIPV

## NCC(N)C(=O)Nc1ccc(-c2nc3ccccc3s2)cc1 (centres unmarked) [ETN101, 2,3-diamino-N-(4-(benzo[d]thiazol-2-yl)phenyl)propanamide]
CYP2C9
  Percentage remaining: 110.8%
CYP2A6
  Percentage remaining: 115.6%
CYP2E1
  Percentage remaining: 81.1%
Rat hepatocytes
  Relative peak area (%): 18.7%

## Nc1ccc(-c2nc3ccccc3s2)cc1 [M1, 2-(4-aminophenyl)benzothiazole]
CYP2C9
  Percentage remaining: 80.1%
CYP2A6
  Percentage remaining: 105.9%
CYP2E1
  Percentage remaining: 97.3%
Rat hepatocytes
  Relative peak area (%): 75.2%

— PMC11356571, “The Comparative Metabolism of a Novel Hepatocellular Carcinoma Therapeutic Agent, 2,3-Diamino-N-(4-(benzo[d]thiazol-2-yl)phenyl)propanamide, in Human and Animal Hepatocytes” (Metabolites, 2024)
